From patent publication US8192962B2, “Processes for detecting toxic substances” (Daikin Industries, Ltd., priority 2001, dated 2012)

Test system: Unknown protein yeast genes
Assay: DNA chip mRNA expression in yeast, unknown protein yeast genes (Table 1)
Format: cell-based, Saccharomyces cerevisiae S288C
Outline: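 Value is the scanned fluorescence intensity ratio of exposed versus chemical-free cells. Log-phase S288C yeast in YPD at 25° C. received one toxic substance for two hours, dosed to slow growth without killing; Cy3/Cy5-labeled cDNA from oligo-dT-purified mRNA was hybridized to a whole-genome chip at 65° C.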

O=[N+]([O-])c1cc[n+]([O-])c2ccccc12 [(5), 4-nitroquinolin-N-oxide]
The level of expressed mRNA in the presence of chemical substance/The level of expressed mRNA in the absence of chemical substance (yeast gene YKL071W): 1.1 | The level of expressed mRNA in the presence of chemical substance/The level of expressed mRNA in the absence of chemical substance (yeast gene YKL086W, incubated two hours with chemical substance): 0.8 | The level of expressed mRNA in the presence of chemical substance/The level of expressed mRNA in the absence of chemical substance (yeast gene YKL151C, incubated two hours with chemical substance): 1.0 | The level of expressed mRNA in the presence of chemical substance/The level of expressed mRNA in the absence of chemical substance (yeast gene YKL153W, incubated two hours with chemical substance): 1.0 | The level of expressed mRNA in the presence of chemical substance/The level of expressed mRNA in the absence of chemical substance (yeast gene YKL195W, incubated two hours with chemical substance): 1.9 | The level of expressed mRNA in the presence of chemical substance/The level of expressed mRNA in the absence of chemical substance (yeast gene YKR091W, incubated two hours with chemical substance): 1.6 | The level of expressed mRNA in the presence of chemical substance/The level of expressed mRNA in the absence of chemical substance (yeast gene YLR054C, incubated two hours with chemical substance): 1.3 | The level of expressed mRNA in the presence of chemical substance/The level of expressed mRNA in the absence of chemical substance (yeast gene YLR149C, incubated two hours with chemical substance): 0.8 | The level of expressed mRNA in the presence of chemical substance/The level of expressed mRNA in the absence of chemical substance (yeast gene YLR152C, incubated two hours with chemical substance): 1.1 | The level of expressed mRNA in the presence of chemical substance/The level of expressed mRNA in the absence of chemical substance (yeast gene YLR194C, incubated two hours with chemical substance): 1.0 | The level of expressed mRNA in the presence of chemical substance/The level of expressed mRNA in the absence of chemical substance (yeast gene YLR324W, incubated two hours with chemical substance): 1.3 | The level of expressed mRNA in the presence of chemical substance/The level of expressed mRNA in the absence of chemical substance (yeast gene YLR339C): 1.3 | The level of expressed mRNA in the presence of chemical substance/The level of expressed mRNA in the absence of chemical substance (yeast gene YLR350W, incubated two hours with chemical substance): 0.8 | The level of expressed mRNA in the presence of chemical substance/The level of expressed mRNA in the absence of chemical substance (yeast gene YLR387C, incubated two hours with chemical substance): 1.3 | The level of expressed mRNA in the presence of chemical substance/The level of expressed mRNA in the absence of chemical substance (yeast gene YLR460C): 1.3 | The level of expressed mRNA in the presence of chemical substance/The level of expressed mRNA in the absence of chemical substance (yeast gene YML117W, incubated two hours with chemical substance): 0.8 | The level of expressed mRNA in the presence of chemical substance/The level of expressed mRNA in the absence of chemical substance (yeast gene YMR007W): 1.3 | The level of expressed mRNA in the presence of chemical substance/The level of expressed mRNA in the absence of chemical substance (yeast gene YMR009W, incubated two hours with chemical substance): 1.9 | The level of expressed mRNA in the presence of chemical substance/The level of expressed mRNA in the absence of chemical substance (yeast gene YMR067C, incubated two hours with chemical substance): 1.1 | The level of expressed mRNA in the presence of chemical substance/The level of expressed mRNA in the absence of chemical substance (yeast gene YMR090W): 0.7 | The level of expressed mRNA in the presence of chemical substance/The level of expressed mRNA in the absence of chemical substance (yeast gene YMR095C, incubated two hours with chemical substance): 0.9 | The level of expressed mRNA in the presence of chemical substance/The level of expressed mRNA in the absence of chemical substance (yeast gene YMR097C, incubated two hours with chemical substance): 0.7 | The level of expressed mRNA in the presence of chemical substance/The level of expressed mRNA in the absence of chemical substance (yeast gene YMR102C, incubated two hours with chemical substance): 1.2 | The level of expressed mRNA in the presence of chemical substance/The level of expressed mRNA in the absence of chemical substance (yeast gene YMR107W, incubated two hours with chemical substance): 1.1 | The level of expressed mRNA in the presence of chemical substance/The level of expressed mRNA in the absence of chemical substance (yeast gene YMR180C, incubated two hours with chemical substance): 1.0 | The level of expressed mRNA in the presence of chemical substance/The level of expressed mRNA in the absence of chemical substance (yeast gene YMR184W, incubated two hours with chemical substance): 0.8 | The level of expressed mRNA in the presence of chemical substance/The level of expressed mRNA in the absence of chemical substance (yeast gene YMR191W, incubated two hours with chemical substance): 1.5 | The level of expressed mRNA in the presence of chemical substance/The level of expressed mRNA in the absence of chemical substance (yeast gene YMR295C, incubated two hours with chemical substance): 1.4 | The level of expressed mRNA in the presence of chemical substance/The level of expressed mRNA in the absence of chemical substance (yeast gene YMR316W, incubated two hours with chemical substance): 1.1 | The level of expressed mRNA in the presence of chemical substance/The level of expressed mRNA in the absence of chemical substance (yeast gene YNL044W, incubated two hours with chemical substance): 1.2 | The level of expressed mRNA in the presence of chemical substance/The level of expressed mRNA in the absence of chemical substance (yeast gene YNL074C, incubated two hours with chemical substance): 1.3 | The level of expressed mRNA in the presence of chemical substance/The level of expressed mRNA in the absence of chemical substance (yeast gene YNL092W, incubated two hours with chemical substance): 0.9 | The level of expressed mRNA in the presence of chemical substance/The level of expressed mRNA in the absence of chemical substance (yeast gene YNL115C, incubated two hours with chemical substance): 0.8 | The level of expressed mRNA in the presence of chemical substance/The level of expressed mRNA in the absence of chemical substance (yeast gene YNL156C, incubated two hours with chemical substance): 1.6 | The level of expressed mRNA in the presence of chemical substance/The level of expressed mRNA in the absence of chemical substance (yeast gene YNL234W, incubated two hours with chemical substance): 1.7 | The level of expressed mRNA in the presence of chemical substance/The level of expressed mRNA in the absence of chemical substance (yeast gene YNL281W, incubated two hours with chemical substance): 1.7 | The level of expressed mRNA in the presence of chemical substance/The level of expressed mRNA in the absence of chemical substance (yeast gene YNL305C, incubated two hours with chemical substance): 1.3 | The level of expressed mRNA in the presence of chemical substance/The level of expressed mRNA in the absence of chemical substance (yeast gene YNR068C, incubated two hours with chemical substance): 1.7 | The level of expressed mRNA in the presence of chemical substance/The level of expressed mRNA in the absence of chemical substance (yeast gene YOL032W, incubated two hours with chemical substance): 1.4 | The level of expressed mRNA in the presence of chemical substance/The level of expressed mRNA in the absence of chemical substance (yeast gene YOL036W, incubated two hours with chemical substance): 1.2 | The level of expressed mRNA in the presence of chemical substance/The level of expressed mRNA in the absence of chemical substance (yeast gene YOL047C, incubated two hours with chemical substance): 1.4 | The level of expressed mRNA in the presence of chemical substance/The level of expressed mRNA in the absence of chemical substance (yeast gene YOL071W, incubated two hours with chemical substance): 0.9 | The level of expressed mRNA in the presence of chemical substance/The level of expressed mRNA in the absence of chemical substance (yeast gene YOL082W, incubated two hours with chemical substance): 1.5 | The level of expressed mRNA in the presence of chemical substance/The level of expressed mRNA in the absence of chemical substance (yeast gene YOL083W, incubated two hours with chemical substance): 1.4 | The level of expressed mRNA in the presence of chemical substance/The level of expressed mRNA in the absence of chemical substance (yeast gene YOL117W, incubated two hours with chemical substance): 1.7 | The level of expressed mRNA in the presence of chemical substance/The level of expressed mRNA in the absence of chemical substance (yeast gene YOL131W, incubated two hours with chemical substance): 1.5 | The level of expressed mRNA in the presence of chemical substance/The level of expressed mRNA in the absence of chemical substance (yeast gene YOL150C): 1.0 | The level of expressed mRNA in the presence of chemical substance/The level of expressed mRNA in the absence of chemical substance (yeast gene YOL162W, incubated two hours with chemical substance): 0.9 | The level of expressed mRNA in the presence of chemical substance/The level of expressed mRNA in the absence of chemical substance (yeast gene YOR019W, incubated two hours with chemical substance): 1.4 | The level of expressed mRNA in the presence of chemical substance/The level of expressed mRNA in the absence of chemical substance (yeast gene YOR129C): 1.3 | The level of expressed mRNA in the presence of chemical substance/The level of expressed mRNA in the absence of chemical substance (yeast gene YOR197W, incubated two hours with chemical substance): 0.6 | The level of expressed mRNA in the presence of chemical substance/The level of expressed mRNA in the absence of chemical substance (yeast gene YPL087W, incubated two hours with chemical substance): 0.6 | The level of expressed mRNA in the presence of chemical substance/The level of expressed mRNA in the absence of chemical substance (yeast gene YPL196W, incubated two hours with chemical substance): 1.5 | The level of expressed mRNA in the presence of chemical substance/The level of expressed mRNA in the absence of chemical substance (yeast gene YPL206C, incubated two hours with chemical substance): 0.7 | The level of expressed mRNA in the presence of chemical substance/The level of expressed mRNA in the absence of chemical substance (yeast gene YPL222W, incubated two hours with chemical substance): 1.2 | The level of expressed mRNA in the presence of chemical substance/The level of expressed mRNA in the absence of chemical substance (yeast gene YPL272C): 1.3 | The level of expressed mRNA in the presence of chemical substance/The level of expressed mRNA in the absence of chemical substance (yeast gene YPR023C, incubated two hours with chemical substance): 1.1 | The level of expressed mRNA in the presence of chemical substance/The level of expressed mRNA in the absence of chemical substance (yeast gene YPR150W): 1.3 | The level of expressed mRNA in the presence of chemical substance/The level of expressed mRNA in the absence of chemical substance (yeast gene YPR151C, incubated two hours with chemical substance): 1.3
